From article PMC8429728, “TNK1 is a ubiquitin-binding and 14-3-3-regulated kinase that can be targeted to block tumor growth” (Nature Communications, 2021) come the findings set out here.

In the test the target is T1, TNK1 (Homo sapiens, UniProt Q13470).
T1 sequence (Q13470 1-666): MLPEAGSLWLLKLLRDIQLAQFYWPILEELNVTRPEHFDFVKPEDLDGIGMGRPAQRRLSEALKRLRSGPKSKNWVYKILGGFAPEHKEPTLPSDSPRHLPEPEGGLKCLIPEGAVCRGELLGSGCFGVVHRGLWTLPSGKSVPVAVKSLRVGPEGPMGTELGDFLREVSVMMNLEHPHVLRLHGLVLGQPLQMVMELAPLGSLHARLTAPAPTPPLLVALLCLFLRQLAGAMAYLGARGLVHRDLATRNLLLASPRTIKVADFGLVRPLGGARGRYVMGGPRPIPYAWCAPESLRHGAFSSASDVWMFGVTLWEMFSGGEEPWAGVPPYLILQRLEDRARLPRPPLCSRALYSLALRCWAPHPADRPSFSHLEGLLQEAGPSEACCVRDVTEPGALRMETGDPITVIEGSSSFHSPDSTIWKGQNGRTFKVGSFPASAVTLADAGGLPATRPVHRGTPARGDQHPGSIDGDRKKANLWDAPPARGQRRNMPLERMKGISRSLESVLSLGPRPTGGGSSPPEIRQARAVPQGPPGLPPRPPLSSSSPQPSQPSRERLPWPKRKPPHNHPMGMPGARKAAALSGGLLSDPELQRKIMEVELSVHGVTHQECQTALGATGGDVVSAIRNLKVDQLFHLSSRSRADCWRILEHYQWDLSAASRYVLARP
In words: radiometric […]-ATP kinase assay with recombinant kinase at Km ATP ([…]); supported by NanoBRET target engagement in HEK293 cells (IC50 […]). The test is classed as biochemical.

For the compound `COc1cc(N2CCN(C)CC2)c(C)cc1Nc1ncc(Br)c(Nc2cccnc2N(C)C)n1` [TP-5801], the IC50 (in general, the concentration needed to halve the response being measured) was 1.4 nM.
